Assay results reported in article PMC5571211 (Scientific Reports, 2017).

How the values were obtained:
[1] = target: T1, mPGES-1 (Homo sapiens, UniProt O14684); settings: cited from earlier work
T1 construct: A549 cells were cultivated in DMEM medium containing FCS (2%) and IL-1β (2 ng/mL) for 72 h; endogenous in cells; host or cells: A549 cells, IL-1β-induced, microsomal fraction
T1 sequence (O14684 1-152): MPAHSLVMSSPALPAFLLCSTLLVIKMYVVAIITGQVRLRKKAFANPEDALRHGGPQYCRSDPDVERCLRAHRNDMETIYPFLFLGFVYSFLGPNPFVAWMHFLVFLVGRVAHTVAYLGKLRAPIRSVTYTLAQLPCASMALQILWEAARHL

[2] = target: T2, LTC4S (Homo sapiens, UniProt Q16873); settings: cited from earlier work
T2 construct: expressed in transfected cells; host or cells: HEK293 stably expressing LTC4S (geneticin selection), microsomal fraction
T2 sequence (Q16873 1-150): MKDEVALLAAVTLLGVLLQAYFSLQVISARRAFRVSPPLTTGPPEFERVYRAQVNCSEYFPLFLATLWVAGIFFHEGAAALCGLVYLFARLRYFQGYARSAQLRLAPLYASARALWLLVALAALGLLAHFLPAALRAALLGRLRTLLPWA

[3] = test system: HEK293 cells expressing 5-LOX and FLAP; assay: 5-LOX product formation in HEK293 cells expressing 5-LOX and FLAP; type: cell-based; settings: HEK293 expressing 5-LOX and FLAP, A23187 plus 3 µM AA
Procedure: (§1) HEK293 cells were cultured in monolayers (37 °C, 5% CO2) in DMEM containing FCS (10%), penicillin (100 U/mL) and streptomycin (100 µg/mL). HEK293 cell lines stably expressing 5-LOX with or without FLAP were selected using geneticin (400 µg/mL) with or without hygromycin (200 µg/mL), respectively, as previously described. Transfection of HEK293 was performed using pcDNA3.1 plasmids and lipofectamine according to the manufacturer’s instructions (Invitrogen, Darmstadt, Germany).
(§2) For analysis of 5-LOX product formation in HEK293 cells stably expressing 5-LOX with or without FLAP, cells were harvested by trypsinization, pelleted (1,200 rpm, 5 min, 4 °C) and resuspended in PGC buffer to a final concentration of 1 × 10^6 cells/mL. Aliquots were pre-incubated with test compounds or 0.1% DMSO for 15 min, respectively, and stimulated with 2.5 µM A23187 and 3 µM AA.

[4] = target: T2, LTC4S; assay: LTC4S activity in microsomes of LTC4S-expressing HEK293 cells; type: biochemical; settings: cell-free, up to 10 µM
Procedure: LTC4S activity was assayed by using microsomes of HEK293 cells stably expressing LTC4S, as previously published. In brief, HEK293 expressing LTC4S were cultivated as described above and selected using geneticin (400 µg/mL). Isolation of microsomes was performed as described for mPGES-1 above and microsomes were diluted in potassium phosphate buffer (0.1 M, pH 7.4) with glutathione (5 mM) to a final concentration of 2.5 µg protein per mL. […] To determine enzyme activity, acidified PBS and d5-LTC4-methyl ester (5 ng) as internal standard were added prior solid phase extraction and LTC4-methyl ester formation was analyzed by UPLC-MS/MS as described.

[5] = target: T1, mPGES-1; assay: mPGES-1 activity in microsomes of IL-1β-stimulated A549 cells; type: biochemical; settings: cell-free, up to 10 µM
Procedure: To perform the analysis of microsomal PGE2 synthase (mPGES)-1 activity, microsomal preparations of A549 cells were obtained as described before. Briefly, A549 cells were cultivated in DMEM medium containing FCS (2%) and IL-1β (2 ng/mL) for 72 h (37 °C, 5% CO2). Cells were harvested and resuspended in homogenization buffer consisting of potassium phosphate (0.1 M, pH 7.4), phenylmethanesulfonyl fluoride (1 mM), soybean trypsin inhibitor (60 µg/mL), leupeptin (1 µg/mL), glutathione (2.5 mM), and sucrose (250 mM). After freezing the cells in liquid nitrogen and sonication (3 × 20 s), a differential centrifugation at 10,000 g (10 min, 4 °C) and 174,000 × g (60 min, 4 °C) was performed and pellets were resuspended in homogenization buffer. […] After stimulation (1 min, 4 °C) with 20 µM PGH2 the reaction was terminated by addition of stop solution containing FeCl3 (40 mM), citric acid (80 mM), and 11β-PGE2 (10 µM as internal standard) and analyzed for PGE2 product formation by RP-HPLC as reported before.

[6] = test system: HEK293 cells expressing 5-LOX (deficient in FLAP); assay: 5-LOX product formation in HEK293 cells expressing 5-LOX alone; type: cell-based; settings: HEK293 expressing 5-LOX, A23187 plus 3 µM AA
Procedure: as §1, §2

[7] = target: T3, human recombinant LTA4-H (Homo sapiens, UniProt P09960); assay: LTA4 hydrolase activity, co-incubation of isolated 5-LOX and LTA4-H; type: biochemical; settings: diflapolin up to 10 µM, AUDA 10 µM, SC57461A 0.3 µM, zileuton 3 µM
T3 construct: gift of Dr. E. Proschak, Goethe University, Frankfurt
T3 sequence (P09960 2-611 limits assumed): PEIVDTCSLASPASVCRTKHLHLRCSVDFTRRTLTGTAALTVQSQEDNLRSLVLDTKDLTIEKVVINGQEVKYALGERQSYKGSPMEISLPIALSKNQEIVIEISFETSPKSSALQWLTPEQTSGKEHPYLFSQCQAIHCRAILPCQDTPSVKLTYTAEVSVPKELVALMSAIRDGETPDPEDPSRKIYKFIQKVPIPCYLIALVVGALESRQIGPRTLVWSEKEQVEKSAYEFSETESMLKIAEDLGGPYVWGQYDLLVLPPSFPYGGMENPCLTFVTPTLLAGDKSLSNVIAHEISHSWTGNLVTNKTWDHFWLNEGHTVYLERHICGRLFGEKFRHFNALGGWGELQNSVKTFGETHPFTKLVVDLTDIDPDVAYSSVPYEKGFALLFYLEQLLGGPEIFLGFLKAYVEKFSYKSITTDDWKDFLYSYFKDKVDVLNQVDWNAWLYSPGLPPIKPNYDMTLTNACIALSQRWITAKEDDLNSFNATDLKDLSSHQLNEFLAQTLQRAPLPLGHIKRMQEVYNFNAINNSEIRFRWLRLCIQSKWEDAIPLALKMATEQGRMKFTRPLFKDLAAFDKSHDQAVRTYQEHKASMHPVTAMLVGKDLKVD
Procedure: In order to determine the activity of LTA4-H, aliquots of human recombinant 5-LOX (0.5 µg) and 10 µg of human recombinant LTA4-H (kindly provided by Dr. E. Proschak, Goethe University, Frankfurt, Germany) were suspended in 1 mL PBS containing 1 mM EDTA and pre-incubated with test compounds or vehicle (0.1% DMSO) for 10 min on ice. The specific LTA4-H inhibitor SC57461A (0.3 µM) was used as reference drug. Subsequently, incubations were stimulated with 20 µM AA and 2 mM CaCl2 for additional 10 min at 37 °C. The reaction was stopped by 1 volume ice-cold methanol, 530 µL acidified PBS and 200 ng of PGB1 as internal standard were added and subjected to solid phase extraction. All LTB4 isomers were analyzed by HPLC as described above.

Compound | inhibition of MAPEG family member mPGES-1 [1] | inhibition of MAPEG family member LTC4S [2] | inhibition of 5-LOX product formation [3] | inhibition of LTC4S activity [4] | inhibition of mPGES-1 activity [5] | inhibition of 5-LOX product formation [6] | effect on LTA4-H activity (LTB4 formation) [7]
CC(C)c1ccc2c(c1)c(SC(C)(C)C)c(CC(C)(C)C(=O)O)n2Cc1ccc(Cl)cc1 [MK886, 3-[1-(4-chlorobenzyl)-3-t-butyl-thio-5-isopropylindol-2-yl]-2,2 - dimethylpropanoic acid] | inhibit | inhibit |  |  |  |  | 
Cc1cc(OCc2nc3ccccc3s2)ccc1NC(=O)Nc1ccc(Cl)c(Cl)c1 [diflapolin, N-[4-(benzothiazol-2-ylmethoxy)-2-methylphenyl]-N′-(3,4-dichlorophenyl)urea] |  |  | strongly inhibited | failed to inhibit | failed to inhibit | hardly impaired | failed to inhibit
